{"source": "paper PMC9168383", "about": "“Structural and functional insights into the DNA damage-inducible protein 1 (Ddi1) from protozoa” (Current Research in Structural Biology, 2022)", "key": {"[1]": {"molecular_target": "CrypDdi1-RVP (Cryptosporidium hominis)", "assay": "crystal structure; CrypDdi1-RVP, microbatch, 8 mg/ml, 0.1 M MES-sodium hydroxide pH 6.0, 30% polyacrylate sodium salt, 10% ethanol, 291 K; space group H32, one molecule in the asymmetric unit, dimer by crystallographic 2-fold symmetry"}, "ToxoDdi1-RVP [2]": {"molecular_target": "T1, ToxoDdi1-RVP (Toxoplasma gondii, UniProt S7W9N7)", "T1 sequence (S7W9N7 entry or part of it)": "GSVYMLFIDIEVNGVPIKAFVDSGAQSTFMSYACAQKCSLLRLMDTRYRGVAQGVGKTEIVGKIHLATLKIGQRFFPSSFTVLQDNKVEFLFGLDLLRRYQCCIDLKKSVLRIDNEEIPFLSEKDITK", "assay": "FRET activity assay with HIV protease substrate-1 and inhibition by HIV protease inhibitors, ToxoDdi1-RVP", "type": "biochemical, T. gondii", "experimental": "(§1) The activity assay was carried out using HIV protease substrate-1 (Sigma-aldrich). […] It contains the HIV protease cleavage site (Tyr-Pro) and two covalently modified amino acids for the detection of the proteolytic activity: the fluorophore EDANS was attached to the glutamic acid residue on the N-terminal side and the acceptor chromophore DABCYL to the lysine residue on the C-terminal side of the scissile bond. EDANS excited with light at 340 nm emits light at 490 nm which gets absorbed by the DABCYL group. Cleavage of the peptide separates the modified amino acids quenching FRET and emission could be detected at 490 nm ToxoDdi1-RVP and CrypDdi1-RVP were added in different concentrations to 2 μM of HIV protease substrate-1 in a buffer containing 0.1M sodium acetate pH 4.5, 1.0 M sodium chloride, 1.0 mM EDTA, 1.0 mM DTT and 10% DMSO. […] All the samples were incubated at 37 °C for 1 h and the fluorescence emission was recorded at 490 nm."}, "ToxoDdi1-RVP [3]": {"molecular_target": "T1, ToxoDdi1-RVP", "assay": "biochemical", "type": "binding"}, "CrypDdi1-RVP [4]": {"molecular_target": "T2, CrypDdi1-RVP (Cryptosporidium hominis, UniProt A0A0S4TE75)", "T2 sequence (A0A0S4TE75 entry or part of it)": "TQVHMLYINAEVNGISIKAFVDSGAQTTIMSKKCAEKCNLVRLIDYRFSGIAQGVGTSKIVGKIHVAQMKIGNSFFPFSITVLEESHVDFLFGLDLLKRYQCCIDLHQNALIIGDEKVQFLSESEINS", "assay": "Bio-layer interferometry (BLI), CrypDdi1-RVP", "type": "binding, C. hominis", "details": "inhibitor 75-600 μM; for binding of inhibitor to CrypDdi1-RVP: MES pH 5.5"}, "T. gondii": {"system": "T. gondii", "details": "ref Wang et al., 2019; cited from earlier work"}, "human Ddi2": {"system": "human Ddi2", "details": "ref Gu et al., 2020, Fassmannova et al.; cited from earlier work"}, "[5]": {"molecular_target": "ToxoDdi1-RVP (Toxoplasma gondii)", "assay": "crystal structure; ToxoDdi1-RVP, microbatch, 8 mg/ml, 1.8 M ammonium citrate tribasic pH 7.0, 30% 2-propanol, 291 K; space group P41212, six dimers in the asymmetric unit"}, "LeishDdi1-fl": {"molecular_target": "T3, LeishDdi1-fl (Leishmania major, UniProt I7HUG0)", "T3 construct": "The full length Ddi1 construct, LeishDdi1-fl (1–390 aa) was cloned in pET-28a vector; hexa-histidine (N); made in house; host or cells: E. coli BL-21", "T3 sequence (I7HUG0 whole entry, the tested form may be a part)": "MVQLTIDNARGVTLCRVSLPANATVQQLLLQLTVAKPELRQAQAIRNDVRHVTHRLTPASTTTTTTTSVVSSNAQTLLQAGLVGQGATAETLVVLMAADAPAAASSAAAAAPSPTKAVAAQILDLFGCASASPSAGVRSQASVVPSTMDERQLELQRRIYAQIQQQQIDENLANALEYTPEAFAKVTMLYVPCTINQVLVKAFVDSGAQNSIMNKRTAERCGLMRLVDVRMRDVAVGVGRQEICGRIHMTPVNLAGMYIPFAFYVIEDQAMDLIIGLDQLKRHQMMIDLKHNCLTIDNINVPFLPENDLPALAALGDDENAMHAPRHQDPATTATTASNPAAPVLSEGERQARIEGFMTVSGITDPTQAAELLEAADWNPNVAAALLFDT", "assay": "BLI binding of peptides to LeishDdi1-fl", "design": "species or system L. major", "details": "5 mM peptide immobilized on AR2G tip, LeishDdi1-fl in solution, 20 mM HEPES pH 7.5, 100 mM NaCl, 10 min, 1:1 Langmuir"}, "CrypDdi1-RVP [6]": {"molecular_target": "T2, CrypDdi1-RVP", "assay": "FRET activity assay with HIV protease substrate-1 and inhibition by HIV protease inhibitors, CrypDdi1-RVP", "type": "biochemical, C. hominis", "experimental": "as §1"}, "ToxoDdi1-RVP [7]": {"molecular_target": "T1, ToxoDdi1-RVP", "assay": "HPLC cleavage of HIV protease substrate-1 by ToxoDdi1-RVP", "type": "biochemical, T. gondii", "details": "10 μM substrate, 22 μg/ml ToxoDdi1-RVP, 100 mM sodium acetate pH 4.7, 1 M NaCl, 1 mM DTT, 37 °C, UV 490 nm"}, "CrypDdi1-RVP [8]": {"molecular_target": "T2, CrypDdi1-RVP", "assay": "HPLC cleavage of HIV protease substrate-1 by CrypDdi1-RVP", "type": "biochemical, C. hominis", "details": "10 μM substrate, 22 μg/ml CrypDdi1-RVP, UV 490 nm"}}, "note": "Ends that are not written are not given here.", "data": [{"molecule": "CrypDdi1-RVP (domain or fragment)", "values": [{"measurement": "stoichiometry N", "setting": "[1]", "result": 2}]}, {"molecule": "Cc1c(O)cccc1C(=O)N[C@@H](CSc1ccccc1)[C@H](O)CN1C[C@H]2CCCC[C@H]2C[C@H]1C(=O)NC(C)(C)C", "note": "[nelfinavir]", "values": [{"measurement": "effect on proteolytic activity of ToxoDdi1-RVP", "setting": "ToxoDdi1-RVP [2]; 500 μM inhibitor, 20 μM ToxoDdi1-RVP, 2 μM HIV protease substrate-1, 0.1M sodium acetate pH 4.5, 1.0 M NaCl, 1.0 mM EDTA, 1.0 mM DTT, 10% DMSO, 37 °C, 1 h, emission 490 nm", "result": "has an inhibitory effect on the proteolytic activity of ToxoDdi1-RVP"}, {"measurement": "fluorescence intensity in the presence of inhibitor, ToxoDdi1-RVP", "setting": "ToxoDdi1-RVP [2]; 500 μM inhibitor, 20 μM ToxoDdi1-RVP, FRET, 490 nm, 37 °C, 1 h", "result": "did not increase"}, {"measurement": "Kd", "setting": "ToxoDdi1-RVP [3]", "result": "238 ± 6.3", "unit": "µM"}, {"measurement": "binding of inhibitor to CrypDdi1-RVP", "setting": "CrypDdi1-RVP [4]", "result": "do not bind"}, {"measurement": "growth of T. gondii", "setting": "T. gondii", "result": "inhibit the growth of T. gondii"}, {"measurement": "inhibition of human Ddi2 activity", "setting": "human Ddi2", "result": "ability to inhibit the activity of human Ddi2"}]}, {"molecule": "ToxoDdi1-RVP (domain or fragment)", "values": [{"measurement": "stoichiometry N", "setting": "[5]", "result": 2}]}, {"molecule": "GVGRQEI [GVGRQEI]", "values": [{"measurement": "Kd", "setting": "LeishDdi1-fl", "result": "25.3 ± 3.5", "unit": "µM"}]}, {"molecule": "CC(C)(C)NC(=O)[C@@H]1C[C@@H]2CCCC[C@@H]2CN1C[C@@H](O)[C@H](Cc1ccccc1)NC(=O)[C@H](CC(N)=O)NC(=O)c1ccc2ccccc2n1", "note": "[saquinavir]", "values": [{"measurement": "effect on proteolytic activity of CrypDdi1-RVP", "setting": "CrypDdi1-RVP [6]; 500 μM inhibitor, 20 μM CrypDdi1-RVP, 2 μM HIV protease substrate-1, 0.1M sodium acetate pH 4.5, 1.0 M NaCl, 1.0 mM EDTA, 1.0 mM DTT, 10% DMSO, 37 °C, 1 h, emission 490 nm", "result": "has an inhibitory effect on the proteolytic activity of CrypDdi1-RVP"}, {"measurement": "fluorescence intensity in the presence of inhibitor, CrypDdi1-RVP", "setting": "CrypDdi1-RVP [6]; 500 μM inhibitor, 20 μM CrypDdi1-RVP, FRET, 490 nm, 37 °C, 1 h", "result": "did not increase"}, {"measurement": "binding of inhibitor to ToxoDdi1-RVP", "setting": "ToxoDdi1-RVP [3]; BLI, inhibitor 75-600 μM, MES pH 5.5", "result": "do not bind"}, {"measurement": "Kd", "setting": "CrypDdi1-RVP [4]; Octet Red96, His-tagged CrypDdi1-RVP on Ni-NTA tip, 100 mM MES pH 5.5, 150 mM NaCl, 0.5% BSA, 0.05% Tween 20, 3 min, 1:1 Langmuir", "result": "242 ± 3", "unit": "µM"}]}, {"molecule": "Arg-Glu(EDANS)-Ser-Gln-Asn-Tyr-Pro-Ile-Val-Gln-Lys(DABCYL)-Arg [HIV protease substrate-1, synthetic FRET peptide containing the HIV protease cleavage site (Tyr-Pro), Sigma-aldrich]", "values": [{"measurement": "substrate cleavage: fluorescence intensity with increasing protein concentration, ToxoDdi1-RVP", "setting": "ToxoDdi1-RVP [2]; 2 μM substrate, no inhibitor, different ToxoDdi1-RVP concentrations", "result": "An increase in the fluorescence intensity was observed with increasing protein concentration"}, {"measurement": "substrate cleavage: fluorescence intensity with increasing protein concentration, CrypDdi1-RVP", "setting": "CrypDdi1-RVP [6]; 2 μM substrate, no inhibitor, different CrypDdi1-RVP concentrations", "result": "An increase in the fluorescence intensity was observed with increasing protein concentration"}, {"measurement": "substrate cleavage by HPLC, ToxoDdi1-RVP, 1 h", "setting": "ToxoDdi1-RVP [7]", "result": "completely cleaved"}, {"measurement": "substrate cleavage by HPLC, CrypDdi1-RVP, 1 h", "setting": "CrypDdi1-RVP [8]; 100 mM sodium acetate pH 4.7, 1 M NaCl, 1 mM DTT, 37 °C, 1 h", "result": "completely cleaved"}, {"measurement": "substrate cleavage by HPLC, CrypDdi1-RVP, 30 min", "setting": "CrypDdi1-RVP [8]; pH 4.7, 37 °C, 30 min", "result": "both the substrate and the product were detected"}]}, {"molecule": "MIWRKPW [MIWRKPW]", "values": [{"measurement": "Kd", "setting": "LeishDdi1-fl", "result": "2.8 ± 1.5", "unit": "µM"}]}, {"molecule": "CC(C)c1nc(CN(C)C(=O)N[C@H](C(=O)N[C@@H](Cc2ccccc2)C[C@H](O)[C@H](Cc2ccccc2)NC(=O)OCc2cncs2)C(C)C)cs1", "note": "[ritonavir]", "values": [{"measurement": "growth of T. gondii", "setting": "T. gondii", "result": "inhibit the growth of T. gondii"}]}, {"molecule": "CC(C)(C)NC(=O)[C@@H]1CN(Cc2cccnc2)CCN1C[C@@H](O)C[C@@H](Cc1ccccc1)C(=O)N[C@H]1c2ccccc2C[C@H]1O", "note": "[indinavir]", "values": [{"measurement": "binding of inhibitor to CrypDdi1-RVP", "setting": "CrypDdi1-RVP [4]", "result": "do not bind"}]}]}
